Reference: PubChem BioAssay AID2060508 (Molecular Pharmacology Branch, DTP, NCI, 2025)

Tested on: 454973-116-R2-J3-PDC spheroids, viability, % test/control
Assay: Anticancer human tumor 454973-116-R2-J3-PDC patient-derived pancreatic carcinoma cell line growth inhibition [GQUAD]
Settings: spheroids with HUVEC and MSC; for IC50: curve of first compound; for viability, T/C: stronger effect = lower value; active = viability on the fitted dose curve at most 10% of control; inactive = the rest
Outline: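 Tumor cells were grown as complex spheroids with HUVEC endothelial cells and mesenchymal stem cells as stroma. G-quadruplex stabilizers were combined with targeted agents over half-log dilutions from near the clinical Cmax, or from 10 microM.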

[1] = second compound 0.0316 µM, first compound 0.0316 µM
[2] = second compound 0.0316 µM, first compound 0.316 µM
[3] = second compound 0.1 µM, first compound 0.0316 µM
[4] = second compound 0.1 µM, first compound 0.316 µM
[5] = second compound 0.316 µM, first compound 0.0316 µM
[6] = second compound 0.316 µM, first compound 0.316 µM
[7] = second compound 1 µM, first compound 0.0316 µM
[8] = second compound 1 µM, first compound 0.316 µM
[9] = second compound 3.16 µM, first compound 0.0316 µM
[10] = second compound 3.16 µM, first compound 0.316 µM
[11] = second compound 10 µM, first compound 0.0316 µM
[12] = second compound 10 µM, first compound 0.316 µM
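Note: spheroids exposed to compounds for seven days.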
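Throughout, for viability, T/C: 100% = DMSO vehicle control viability.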

CCc1c2c(nc3ccc(O)cc13)-c1cc3c(c(=O)n1C2)COC(=O)[C@]3(O)CC + Cc1cnc(CNC(=O)c2c(=O)c3ccc(N4CCCN(C)CC4)nc3n3c2sc2ccccc23)cn1
< 0.999 nM: IC50 (second compound 0.0316 µM) | IC50 (second compound 0.1 µM) | IC50 (second compound 0.316 µM) | IC50 (second compound 10 µM)
inactive: viability, T/C (second compound 0.0316 µM, first compound 0.000999 µM) 45.7% | viability, T/C (second compound 0.0316 µM, first compound 0.00316 µM) 24.6% | viability, T/C (second compound 0.0316 µM, first compound 0.00999 µM) 22.9% | viability, T/C [1] 12.3% | viability, T/C (second compound 0.1 µM, first compound 0.000999 µM) 36.2% | viability, T/C (second compound 0.1 µM, first compound 0.00316 µM) 24.1% | viability, T/C (second compound 0.1 µM, first compound 0.00999 µM) 22.9% | viability, T/C [3] 14.8% | viability, T/C (second compound 0.316 µM, first compound 0.000999 µM) 37.7% | viability, T/C (second compound 0.316 µM, first compound 0.00316 µM) 34.2% | viability, T/C (second compound 0.316 µM, first compound 0.00999 µM) 33.7% | viability, T/C [5] 15.9% | viability, T/C (second compound 0.316 µM, first compound 0.0999 µM) 7.83% | viability, T/C (second compound 1 µM, first compound 0.000999 µM) 47.1% | viability, T/C (second compound 1 µM, first compound 0.00316 µM) 54.1% | viability, T/C (second compound 1 µM, first compound 0.00999 µM) 36.5% | viability, T/C [7] 22.2% | viability, T/C (second compound 3.16 µM, first compound 0.000999 µM) 59.7% | viability, T/C (second compound 3.16 µM, first compound 0.00316 µM) 51.9% | viability, T/C (second compound 3.16 µM, first compound 0.00999 µM) 40% | viability, T/C [9] 26.1% | viability, T/C (second compound 10 µM, first compound 0.000999 µM) 16.4% | viability, T/C (second compound 10 µM, first compound 0.00316 µM) 16.7% | viability, T/C (second compound 10 µM, first compound 0.00999 µM) 38.7% | viability, T/C [11] 0.26%
active: viability, T/C (second compound 0.0316 µM, first compound 0.0999 µM) 7.38% | viability, T/C [2] 4.15% | viability, T/C (second compound 0.1 µM, first compound 0.0999 µM) 7.21% | viability, T/C [4] 4.8% | viability, T/C [6] 4.86% | viability, T/C (second compound 1 µM, first compound 0.0999 µM) 7.17% | viability, T/C [8] 2.75% | viability, T/C (second compound 3.16 µM, first compound 0.0999 µM) 7.65% | viability, T/C [10] 0.55% | viability, T/C (second compound 10 µM, first compound 0.0999 µM) 0.24% | viability, T/C [12] 0.7%
1.45 nM: IC50 (second compound 1 µM)
4.04 nM: IC50 (second compound 3.16 µM)

CC1COCCN1c1cc(C2(O)CC3CCC(C2)O3)c2cnn(-c3ccn[nH]3)c2n1 (centres undefined) + Cc1cnc(CNC(=O)c2c(=O)c3ccc(N4CCCN(C)CC4)nc3n3c2sc2ccccc23)cn1
active: viability, T/C (second compound 3.16 µM, first compound 10 µM) 7.65% | viability, T/C [11] 0.12% | viability, T/C (second compound 10 µM, first compound 0.1 µM) 0.16% | viability, T/C [12] 0.21% | viability, T/C (second compound 10 µM, first compound 1 µM) 0.15% | viability, T/C (second compound 10 µM, first compound 3.16 µM) 0.23% | viability, T/C (second compound 10 µM, first compound 10 µM) 0.19%
< 31.6 nM: IC50 (second compound 0.1 µM) | IC50 (second compound 0.316 µM) | IC50 (second compound 1 µM) | IC50 (second compound 3.16 µM) | IC50 (second compound 10 µM)
inactive: viability, T/C [1] 50.7% | viability, T/C (second compound 0.0316 µM, first compound 0.1 µM) 27.5% | viability, T/C [2] 19.5% | viability, T/C (second compound 0.0316 µM, first compound 1 µM) 20.4% | viability, T/C (second compound 0.0316 µM, first compound 3.16 µM) 18.7% | viability, T/C (second compound 0.0316 µM, first compound 10 µM) 9.73% | viability, T/C [3] 35% | viability, T/C (second compound 0.1 µM, first compound 0.1 µM) 22.3% | viability, T/C [4] 19.1% | viability, T/C (second compound 0.1 µM, first compound 1 µM) 19% | viability, T/C (second compound 0.1 µM, first compound 3.16 µM) 17.7% | viability, T/C (second compound 0.1 µM, first compound 10 µM) 12.7% | viability, T/C [5] 29.6% | viability, T/C (second compound 0.316 µM, first compound 0.1 µM) 25.4% | viability, T/C [6] 24.9% | viability, T/C (second compound 0.316 µM, first compound 1 µM) 22% | viability, T/C (second compound 0.316 µM, first compound 3.16 µM) 18.3% | viability, T/C (second compound 0.316 µM, first compound 10 µM) 10.8% | viability, T/C [7] 38.9% | viability, T/C (second compound 1 µM, first compound 0.1 µM) 29.1% | viability, T/C [8] 27.5% | viability, T/C (second compound 1 µM, first compound 1 µM) 23.8% | viability, T/C (second compound 1 µM, first compound 3.16 µM) 20% | viability, T/C (second compound 1 µM, first compound 10 µM) 11.7% | viability, T/C [9] 37.9% | viability, T/C (second compound 3.16 µM, first compound 0.1 µM) 32.3% | viability, T/C [10] 31.6% | viability, T/C (second compound 3.16 µM, first compound 1 µM) 23.4% | viability, T/C (second compound 3.16 µM, first compound 3.16 µM) 18.2%
31.8 nM: IC50 (second compound 0.0316 µM)
